Results reported in PubChem BioAssay (NCI).
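Briefly, cells in 96-well plates were exposed to five compound concentrations for 48 h, and endpoints were estimated by linear interpolation. Here, GI50 denotes the concentration required for 50% inhibition of growth. Definition used: TGI = concentration required for complete inhibition of growth.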

Test system: 786-0 renal
Experiment: NCI-60 cell line screen, 48 h

| SMILES | TGI [µM] | GI50 [µM] |
| --- | --- | --- |
| NC(=S)N/N=C1\CCCC\C1=C/c1ccccc1 | > 100 | – |
| Cc1ccc(C)c(N2C(=O)C(=O)C(c3nc4ccccc4o3)/C(=N/N)C2=O)c1 (stereo unspecified) | > 100 | – |
| CCCCCCCCCCCCCCCCCCC1=C(O)C(=O)C=C(OC)C1=O | > 100 | – |
| CC(=O)OCCOCNC(=S)N/N=C/c1ccc([N+](=O)[O-])s1 | > 100 | – |
| Cc1ccc(C)c(N2C(=O)C(=O)C(c3nc4ccccc4o3)/C(=N\NC(=O)c3ccccc3O)C2=O)c1 (stereo unspecified) | > 100 | – |
| c1ccc2c(c1)OCCOCCOc1ccccc1OCCO2 | > 100 | – |
| Cc1ccc2[c](c1)[Sn]([c]1ccccc1)([c]1ccccc1)[c]1cc(C)ccc1N2C | > 100 | 16.2 |

Test system: A498 renal
Experiment: NCI-60 cell line screen, 48 h

| SMILES | TGI [µM] |
| --- | --- |
| NC(=S)N/N=C1\CCCC\C1=C/c1ccccc1 | > 100 |
| Cc1ccc(C)c(N2C(=O)C(=O)C(c3nc4ccccc4o3)/C(=N/N)C2=O)c1 (stereo unspecified) | > 100 |
| CCCCCCCCCCCCCCCCCCC1=C(O)C(=O)C=C(OC)C1=O | > 100 |
| CC(=O)OCCOCNC(=S)N/N=C/c1ccc([N+](=O)[O-])s1 | > 100 |
| Cc1ccc(C)c(N2C(=O)C(=O)C(c3nc4ccccc4o3)/C(=N\NC(=O)c3ccccc3O)C2=O)c1 (stereo unspecified) | 76.8 |
| c1ccc2c(c1)OCCOCCOc1ccccc1OCCO2 | > 100 |

Test system: A549 NSCLC
Experiment: NCI-60 cell line screen, 48 h

| SMILES | TGI [µM] | GI50 [µM] |
| --- | --- | --- |
| NC(=S)N/N=C1\CCCC\C1=C/c1ccccc1 | > 100 | – |
| Cc1ccc(C)c(N2C(=O)C(=O)C(c3nc4ccccc4o3)/C(=N/N)C2=O)c1 (stereo unspecified) | > 100 | – |
| CCCCCCCCCCCCCCCCCCC1=C(O)C(=O)C=C(OC)C1=O | > 100 | – |
| CC(=O)OCCOCNC(=S)N/N=C/c1ccc([N+](=O)[O-])s1 | > 100 | – |
| Cc1ccc(C)c(N2C(=O)C(=O)C(c3nc4ccccc4o3)/C(=N\NC(=O)c3ccccc3O)C2=O)c1 (stereo unspecified) | > 100 | – |
| c1ccc2c(c1)OCCOCCOc1ccccc1OCCO2 | > 100 | – |
| Cc1ccc2[c](c1)[Sn]([c]1ccccc1)([c]1ccccc1)[c]1cc(C)ccc1N2C | > 100 | > 100 |

Test system: ACHN renal
Experiment: NCI-60 cell line screen, 48 h

| SMILES | TGI [µM] | GI50 [µM] |
| --- | --- | --- |
| NC(=S)N/N=C1\CCCC\C1=C/c1ccccc1 | > 100 | – |
| Cc1ccc(C)c(N2C(=O)C(=O)C(c3nc4ccccc4o3)/C(=N/N)C2=O)c1 (stereo unspecified) | > 100 | – |
| CCCCCCCCCCCCCCCCCCC1=C(O)C(=O)C=C(OC)C1=O | > 100 | – |
| CC(=O)OCCOCNC(=S)N/N=C/c1ccc([N+](=O)[O-])s1 | > 100 | – |
| Cc1ccc(C)c(N2C(=O)C(=O)C(c3nc4ccccc4o3)/C(=N\NC(=O)c3ccccc3O)C2=O)c1 (stereo unspecified) | > 100 | – |
| c1ccc2c(c1)OCCOCCOc1ccccc1OCCO2 | > 100 | – |
| Cc1ccc2[c](c1)[Sn]([c]1ccccc1)([c]1ccccc1)[c]1cc(C)ccc1N2C | > 100 | 66.8 |

Test system: CAKI-1 renal
Experiment: NCI-60 cell line screen, 48 h

| SMILES | TGI [µM] |
| --- | --- |
| Cc1ccc(C)c(N2C(=O)C(=O)C(c3nc4ccccc4o3)/C(=N/N)C2=O)c1 (stereo unspecified) | > 100 |
| CCCCCCCCCCCCCCCCCCC1=C(O)C(=O)C=C(OC)C1=O | > 100 |
| Cc1ccc(C)c(N2C(=O)C(=O)C(c3nc4ccccc4o3)/C(=N\NC(=O)c3ccccc3O)C2=O)c1 (stereo unspecified) | 18.5 |
| c1ccc2c(c1)OCCOCCOc1ccccc1OCCO2 | > 100 |

Test system: CCRF-CEM leukemia
Experiment: NCI-60 cell line screen, 48 h

| SMILES | TGI [µM] |
| --- | --- |
| NC(=S)N/N=C1\CCCC\C1=C/c1ccccc1 | > 100 |
| Cc1ccc(C)c(N2C(=O)C(=O)C(c3nc4ccccc4o3)/C(=N/N)C2=O)c1 (stereo unspecified) | > 100 |
| CC(=O)OCCOCNC(=S)N/N=C/c1ccc([N+](=O)[O-])s1 | > 100 |
| Cc1ccc(C)c(N2C(=O)C(=O)C(c3nc4ccccc4o3)/C(=N\NC(=O)c3ccccc3O)C2=O)c1 (stereo unspecified) | 42.1 |
| c1ccc2c(c1)OCCOCCOc1ccccc1OCCO2 | > 100 |

Test system: COLO 205 colon
Experiment: NCI-60 cell line screen, 48 h

| SMILES | TGI [µM] | GI50 [µM] |
| --- | --- | --- |
| NC(=S)N/N=C1\CCCC\C1=C/c1ccccc1 | > 100 | – |
| Cc1ccc(C)c(N2C(=O)C(=O)C(c3nc4ccccc4o3)/C(=N/N)C2=O)c1 (stereo unspecified) | > 100 | – |
| CCCCCCCCCCCCCCCCCCC1=C(O)C(=O)C=C(OC)C1=O | > 100 | – |
| CC(=O)OCCOCNC(=S)N/N=C/c1ccc([N+](=O)[O-])s1 | 4.61 | – |
| Cc1ccc(C)c(N2C(=O)C(=O)C(c3nc4ccccc4o3)/C(=N\NC(=O)c3ccccc3O)C2=O)c1 (stereo unspecified) | 72.2 | – |
| c1ccc2c(c1)OCCOCCOc1ccccc1OCCO2 | > 100 | – |
| Cc1ccc2[c](c1)[Sn]([c]1ccccc1)([c]1ccccc1)[c]1cc(C)ccc1N2C | 52.2 | 23.1 |

Test system: DLD-1 colon
Experiment: NCI-60 cell line screen, 48 h

| SMILES | TGI [µM] |
| --- | --- |
| NC(=S)N/N=C1\CCCC\C1=C/c1ccccc1 | > 100 |
| Cc1ccc(C)c(N2C(=O)C(=O)C(c3nc4ccccc4o3)/C(=N/N)C2=O)c1 (stereo unspecified) | > 100 |
| CCCCCCCCCCCCCCCCCCC1=C(O)C(=O)C=C(OC)C1=O | > 100 |
| CC(=O)OCCOCNC(=S)N/N=C/c1ccc([N+](=O)[O-])s1 | > 100 |
| Cc1ccc(C)c(N2C(=O)C(=O)C(c3nc4ccccc4o3)/C(=N\NC(=O)c3ccccc3O)C2=O)c1 (stereo unspecified) | > 100 |
| c1ccc2c(c1)OCCOCCOc1ccccc1OCCO2 | > 100 |

Test system: DMS 114 small cell lung
Experiment: NCI-60 cell line screen, 48 h

| SMILES | TGI [µM] | GI50 [µM] |
| --- | --- | --- |
| NC(=S)N/N=C1\CCCC\C1=C/c1ccccc1 | > 100 | – |
| Cc1ccc(C)c(N2C(=O)C(=O)C(c3nc4ccccc4o3)/C(=N/N)C2=O)c1 (stereo unspecified) | > 100 | – |
| CCCCCCCCCCCCCCCCCCC1=C(O)C(=O)C=C(OC)C1=O | 61.8 | – |
| CC(=O)OCCOCNC(=S)N/N=C/c1ccc([N+](=O)[O-])s1 | 26.4 | – |
| Cc1ccc(C)c(N2C(=O)C(=O)C(c3nc4ccccc4o3)/C(=N\NC(=O)c3ccccc3O)C2=O)c1 (stereo unspecified) | 71.3 | – |
| c1ccc2c(c1)OCCOCCOc1ccccc1OCCO2 | > 100 | – |
| Cc1ccc2[c](c1)[Sn]([c]1ccccc1)([c]1ccccc1)[c]1cc(C)ccc1N2C | > 100 | 28.7 |

Test system: DMS 273 small cell lung
Experiment: NCI-60 cell line screen, 48 h

| SMILES | TGI [µM] | GI50 [µM] |
| --- | --- | --- |
| NC(=S)N/N=C1\CCCC\C1=C/c1ccccc1 | 82.6 | – |
| Cc1ccc(C)c(N2C(=O)C(=O)C(c3nc4ccccc4o3)/C(=N/N)C2=O)c1 (stereo unspecified) | > 100 | – |
| CCCCCCCCCCCCCCCCCCC1=C(O)C(=O)C=C(OC)C1=O | > 100 | – |
| CC(=O)OCCOCNC(=S)N/N=C/c1ccc([N+](=O)[O-])s1 | 85.2 | – |
| Cc1ccc(C)c(N2C(=O)C(=O)C(c3nc4ccccc4o3)/C(=N\NC(=O)c3ccccc3O)C2=O)c1 (stereo unspecified) | 36.1 | – |
| c1ccc2c(c1)OCCOCCOc1ccccc1OCCO2 | > 100 | – |
| Cc1ccc2[c](c1)[Sn]([c]1ccccc1)([c]1ccccc1)[c]1cc(C)ccc1N2C | > 100 | 44.5 |

Test system: EKVX NSCLC
Experiment: NCI-60 cell line screen, 48 h

| SMILES | TGI [µM] | GI50 [µM] |
| --- | --- | --- |
| NC(=S)N/N=C1\CCCC\C1=C/c1ccccc1 | > 100 | – |
| Cc1ccc(C)c(N2C(=O)C(=O)C(c3nc4ccccc4o3)/C(=N/N)C2=O)c1 (stereo unspecified) | > 100 | – |
| CCCCCCCCCCCCCCCCCCC1=C(O)C(=O)C=C(OC)C1=O | > 100 | – |
| CC(=O)OCCOCNC(=S)N/N=C/c1ccc([N+](=O)[O-])s1 | > 100 | – |
| Cc1ccc(C)c(N2C(=O)C(=O)C(c3nc4ccccc4o3)/C(=N\NC(=O)c3ccccc3O)C2=O)c1 (stereo unspecified) | > 100 | – |
| c1ccc2c(c1)OCCOCCOc1ccccc1OCCO2 | > 100 | – |
| Cc1ccc2[c](c1)[Sn]([c]1ccccc1)([c]1ccccc1)[c]1cc(C)ccc1N2C | > 100 | 41.4 |

Test system: HCC-2998 colon
Experiment: NCI-60 cell line screen, 48 h

| SMILES | TGI [µM] | GI50 [µM] |
| --- | --- | --- |
| NC(=S)N/N=C1\CCCC\C1=C/c1ccccc1 | > 100 | – |
| Cc1ccc(C)c(N2C(=O)C(=O)C(c3nc4ccccc4o3)/C(=N/N)C2=O)c1 (stereo unspecified) | > 100 | – |
| CCCCCCCCCCCCCCCCCCC1=C(O)C(=O)C=C(OC)C1=O | > 100 | – |
| CC(=O)OCCOCNC(=S)N/N=C/c1ccc([N+](=O)[O-])s1 | > 100 | – |
| Cc1ccc(C)c(N2C(=O)C(=O)C(c3nc4ccccc4o3)/C(=N\NC(=O)c3ccccc3O)C2=O)c1 (stereo unspecified) | > 100 | – |
| Cc1ccc2[c](c1)[Sn]([c]1ccccc1)([c]1ccccc1)[c]1cc(C)ccc1N2C | > 100 | 26.4 |

Test system: HCT-116 colon
Experiment: NCI-60 cell line screen, 48 h

| SMILES | TGI [µM] | GI50 [µM] |
| --- | --- | --- |
| NC(=S)N/N=C1\CCCC\C1=C/c1ccccc1 | > 100 | – |
| Cc1ccc(C)c(N2C(=O)C(=O)C(c3nc4ccccc4o3)/C(=N/N)C2=O)c1 (stereo unspecified) | > 100 | – |
| CCCCCCCCCCCCCCCCCCC1=C(O)C(=O)C=C(OC)C1=O | > 100 | – |
| CC(=O)OCCOCNC(=S)N/N=C/c1ccc([N+](=O)[O-])s1 | 54 | – |
| Cc1ccc(C)c(N2C(=O)C(=O)C(c3nc4ccccc4o3)/C(=N\NC(=O)c3ccccc3O)C2=O)c1 (stereo unspecified) | 63.6 | – |
| c1ccc2c(c1)OCCOCCOc1ccccc1OCCO2 | > 100 | – |
| Cc1ccc2[c](c1)[Sn]([c]1ccccc1)([c]1ccccc1)[c]1cc(C)ccc1N2C | > 100 | 20.9 |

Test system: HCT-15 colon
Experiment: NCI-60 cell line screen, 48 h

| SMILES | TGI [µM] | GI50 [µM] |
| --- | --- | --- |
| NC(=S)N/N=C1\CCCC\C1=C/c1ccccc1 | > 100 | – |
| Cc1ccc(C)c(N2C(=O)C(=O)C(c3nc4ccccc4o3)/C(=N/N)C2=O)c1 (stereo unspecified) | > 100 | – |
| CCCCCCCCCCCCCCCCCCC1=C(O)C(=O)C=C(OC)C1=O | 97.5 | – |
| CC(=O)OCCOCNC(=S)N/N=C/c1ccc([N+](=O)[O-])s1 | > 100 | – |
| Cc1ccc(C)c(N2C(=O)C(=O)C(c3nc4ccccc4o3)/C(=N\NC(=O)c3ccccc3O)C2=O)c1 (stereo unspecified) | > 100 | – |
| c1ccc2c(c1)OCCOCCOc1ccccc1OCCO2 | > 100 | – |
| Cc1ccc2[c](c1)[Sn]([c]1ccccc1)([c]1ccccc1)[c]1cc(C)ccc1N2C | > 100 | 36.9 |

Test system: HL-60(TB) leukemia
Experiment: NCI-60 cell line screen, 48 h

| SMILES | TGI [µM] |
| --- | --- |
| NC(=S)N/N=C1\CCCC\C1=C/c1ccccc1 | 4.74 |
| Cc1ccc(C)c(N2C(=O)C(=O)C(c3nc4ccccc4o3)/C(=N/N)C2=O)c1 (stereo unspecified) | > 100 |
| CCCCCCCCCCCCCCCCCCC1=C(O)C(=O)C=C(OC)C1=O | 80.8 |
| CC(=O)OCCOCNC(=S)N/N=C/c1ccc([N+](=O)[O-])s1 | 11.5 |
| Cc1ccc(C)c(N2C(=O)C(=O)C(c3nc4ccccc4o3)/C(=N\NC(=O)c3ccccc3O)C2=O)c1 (stereo unspecified) | 31.2 |
| c1ccc2c(c1)OCCOCCOc1ccccc1OCCO2 | 69.1 |
